Publication PMC8893300, “A Dynamic Mass Redistribution Assay for the Human Sweet Taste Receptor Uncovers G-Protein Dependent Biased Ligands” (Frontiers in Pharmacology, 2022)
Read-outs that look alike come from different tables or passages of the source. Marks after values point to notes of the source that are not given here.

Biological target: T1, human sweet taste receptor (hT1R2/hT1R3) (Homo sapiens, UniProt Q7RTX0+Q8TE23)
T1 construct: expressed in transfected cells
T1 sequence (Q8TE23 20-839): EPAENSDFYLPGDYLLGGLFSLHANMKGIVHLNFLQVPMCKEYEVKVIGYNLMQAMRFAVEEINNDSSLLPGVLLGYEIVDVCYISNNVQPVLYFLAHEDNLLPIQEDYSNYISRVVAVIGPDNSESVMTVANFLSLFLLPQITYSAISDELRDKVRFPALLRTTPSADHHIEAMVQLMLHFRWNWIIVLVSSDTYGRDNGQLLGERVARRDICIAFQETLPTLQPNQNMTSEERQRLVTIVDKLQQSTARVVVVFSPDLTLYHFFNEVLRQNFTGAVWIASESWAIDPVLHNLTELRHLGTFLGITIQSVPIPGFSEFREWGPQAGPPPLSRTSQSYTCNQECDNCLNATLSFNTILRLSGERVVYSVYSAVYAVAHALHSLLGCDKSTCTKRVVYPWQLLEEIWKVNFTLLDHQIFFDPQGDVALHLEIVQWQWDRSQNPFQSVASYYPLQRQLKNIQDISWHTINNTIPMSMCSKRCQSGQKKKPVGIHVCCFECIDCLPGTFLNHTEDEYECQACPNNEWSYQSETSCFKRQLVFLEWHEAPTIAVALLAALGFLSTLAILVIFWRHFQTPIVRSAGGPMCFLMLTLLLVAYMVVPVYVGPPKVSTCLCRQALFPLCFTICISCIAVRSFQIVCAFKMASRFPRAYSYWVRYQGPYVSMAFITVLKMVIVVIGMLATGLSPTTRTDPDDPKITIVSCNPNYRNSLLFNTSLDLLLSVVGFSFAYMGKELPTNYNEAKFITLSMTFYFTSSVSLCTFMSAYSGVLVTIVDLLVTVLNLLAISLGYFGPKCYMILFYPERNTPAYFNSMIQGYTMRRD
T1 sequence (Q7RTX0 21-852): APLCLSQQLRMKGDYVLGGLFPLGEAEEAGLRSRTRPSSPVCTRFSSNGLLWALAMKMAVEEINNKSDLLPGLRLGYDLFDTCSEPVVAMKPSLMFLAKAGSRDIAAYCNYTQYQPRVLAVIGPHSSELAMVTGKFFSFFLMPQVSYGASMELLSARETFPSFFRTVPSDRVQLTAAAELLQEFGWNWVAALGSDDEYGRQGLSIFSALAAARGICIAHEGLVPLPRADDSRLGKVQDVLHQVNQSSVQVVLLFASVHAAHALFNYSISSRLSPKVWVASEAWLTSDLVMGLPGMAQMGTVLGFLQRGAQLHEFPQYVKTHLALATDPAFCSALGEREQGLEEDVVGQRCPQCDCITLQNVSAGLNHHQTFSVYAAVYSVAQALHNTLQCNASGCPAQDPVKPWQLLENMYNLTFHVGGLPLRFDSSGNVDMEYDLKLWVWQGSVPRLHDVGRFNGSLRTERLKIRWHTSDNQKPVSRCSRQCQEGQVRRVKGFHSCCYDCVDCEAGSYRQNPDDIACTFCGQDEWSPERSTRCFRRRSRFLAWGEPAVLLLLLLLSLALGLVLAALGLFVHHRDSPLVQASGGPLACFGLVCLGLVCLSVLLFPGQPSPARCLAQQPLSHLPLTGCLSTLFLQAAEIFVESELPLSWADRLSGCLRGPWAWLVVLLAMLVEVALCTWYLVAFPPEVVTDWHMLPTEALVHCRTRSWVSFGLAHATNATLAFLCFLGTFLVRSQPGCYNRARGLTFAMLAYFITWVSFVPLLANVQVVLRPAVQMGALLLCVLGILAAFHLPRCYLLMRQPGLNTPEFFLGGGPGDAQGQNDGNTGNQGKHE
Test: DMR assay (Epic reader) on R2/R3 U2OS cells, endogenous G proteins
Format: cell-based
Settings: for EC50: R2/R3 U2OS cells, peak DMR response; for ΔlogR DMR Mean: Table 2, operational model, logR minus sucralose logR; for Activity in DMR assay Emax: top asymptote of dose-response normalized to 1 mM sucralose
Procedure: The plates were incubated in the tissue culture hood for 20 min to allow cells to settle evenly at the bottom of the microplate and further cultured at 37°C in an atmosphere of 5% CO2 for 18–24 h. The next day, the cells were subjected to functional analysis using DMR. […] When indicated, data for agonist dose-responses were normalized to data obtained with a maximum concentration of sucralose (1 mM) and then fitted and plotted using GraphPad Prism (San Diego, CA) and non-linear regression analysis.
This value, that we termed pEC50Ratio (sucralose) or pEC50R (sucralose), was calculated with EC50 values obtained in the two assay systems. This transformation also allowed determination of an average and a standard error for the pEC50R (sucralose). The two sets of data (DMR and FLIPR data) were then analyzed with an un-paired t-test (α = 0.05). To calculate relative efficacy bias between the two assays, we captured the top asymptote value from each activity-normalized dose-response curve, as provided by the curve fit, calculated an average and a standard deviation (sd) for each agonist and then analyzed the data pairs with an un-paired t-test (α = 0.05). […] The following steps were followed: 1) Using the PRISM software, we re-analyzed each ligand’s dose-response data obtained in each assay with non-linear regression and the users-defined equation “New Operational Model with TauKa ratios” and retrieved logR values from the fits. 2) Subtracted each ligand’s logR value with that of our standard, the sucralose logR value, obtained from the same data set (each ligand dose-response assay data used in this analysis was accompanied with a sucralose dose-response ran on the same day), producing the ΔlogR value for leach ligand in each assay. 3) Calculated the mean and SEM from ΔlogR replicates (from three to nine independent dose-response analysis, in the two different assays). 4) Calculated ΔΔlogR values by subtracting the averaged ligands’ ΔlogR FLIPR values with the averaged ligands’ ΔlogR DMR values.

[1] = read-out: Activity in DMR assay EC50
[2] = read-out: Activity in DMR assay pEC50 (converted)

Row | SMILES | EC50 [1] | EC50 [2] | ΔlogR DMR Mean | Activity in DMR assay Emax
1 | COC(=O)[C@H](Cc1ccccc1)NC(=O)[C@H](CC(=O)O)NCCC(C)(C)C [Neotame] | 7.7 µM | 7.29 µM | 1.15 | 99*
2 | CC(C)Oc1ccc(NC(=S)NCc2ccc[nH]2)cc1 [S819] | 0.7 µM | 0.637 µM | 2.52 | 143*
3 | CC(C)Oc1ccc(NC(=S)NCc2cccs2)cc1 [S5227] | 2.2 µM | 2.07 µM | 1.84 | 128
